Among the data in patent EP0231622B1, “Inhibition of the 5-lipoxygenase pathway” (priority 1985, dated 1987) are IC50 and inhibition values, retold here.

Some results are limits rather than exact numbers.

One assay concerns the target T1, 5-Lipoxygenase (Rattus norvegicus, UniProt P12527).
T1 construct: The activities of these enzymes in extracts of RBL-1 cells were assayed; host or cells: RBL-1 cells, disrupted by nitrogen cavitation; 10,000 x g or 100,000 x g supernatant
T1 sequence (P12527 1-673): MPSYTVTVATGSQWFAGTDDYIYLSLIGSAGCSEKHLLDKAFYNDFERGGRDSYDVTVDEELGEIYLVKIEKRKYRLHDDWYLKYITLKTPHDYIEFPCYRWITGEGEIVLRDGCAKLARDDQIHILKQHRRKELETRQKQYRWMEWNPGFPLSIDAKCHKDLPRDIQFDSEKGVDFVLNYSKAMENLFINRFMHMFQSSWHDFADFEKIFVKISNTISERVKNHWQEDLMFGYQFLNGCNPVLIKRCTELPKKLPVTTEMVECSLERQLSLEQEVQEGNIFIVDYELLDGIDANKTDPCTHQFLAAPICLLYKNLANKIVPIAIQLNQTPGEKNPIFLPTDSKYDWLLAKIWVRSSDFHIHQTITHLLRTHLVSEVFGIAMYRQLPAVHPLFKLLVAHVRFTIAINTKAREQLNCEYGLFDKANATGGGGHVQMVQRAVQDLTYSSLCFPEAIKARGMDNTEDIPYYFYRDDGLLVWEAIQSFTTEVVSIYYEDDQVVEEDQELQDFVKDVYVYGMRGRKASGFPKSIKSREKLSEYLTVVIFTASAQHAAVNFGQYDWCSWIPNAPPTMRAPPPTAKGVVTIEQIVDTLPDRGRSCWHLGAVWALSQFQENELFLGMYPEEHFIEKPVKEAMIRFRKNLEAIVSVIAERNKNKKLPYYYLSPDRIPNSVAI
The assay can be described thus: 5-HETE production by RBL-1 high speed supernatant. Format: biochemical. To be noted: for IC50: Table 8A, RBL-1 high speed supernatant. The method, then: (§1) For in vitro experiments, compounds were dissolved at appropriate concentrations in ethanol or DMSO (dimethylsulfoxide) (final concentration <1.0%) and then diluted to final concentrations using the buffers indicated in the text.
(§2) The activities of these enzymes in extracts of RBL-1 cells were assayed using the method of Jakschik and Lee, Nature, 287, 51-52 (1980). RBL-1 cells were obtained from the American Type Culture Collection (#CRL 1378) and were grown at 37°C (5% CO₂ in air) in spinner culture in MEM supplemented with 10% heat inactivated fetal calf serum. Harvested cells were washed with 50 mM sodium phosphate buffer, pH 7.0, containing 1 mM EDTA and 0.1% gelatin, resuspended in fresh buffer (5 x 10⁷ cells/ml) and disrupted by nitrogen cavitation using the Parr bomb at 750 psi for 10 min. The broken cell extract was then centrifuged at 10,000 x g for 20 minutes and the supernatant centrifuged at 100,000 x g for 60 minutes. Aliquots (0.25 mls) of the supernatant were preincubated with or without drugs for 10 min, after which 10 ul CaCl₂ (50 mM) was added and the reaction was initiated with 2.5 ul of 2.5 mM arachidonic acid-1-¹⁴C (final concentration was […]; specific activity 20,000 dpm/nmole). After incubation for 3 min at 37°C, the reaction was terminated by addition of 2 volumes (0.5 ml) ice cold acetone and the sample was allowed to deproteinize on ice for 10 min prior to centrifugation at 1,000 x g for 10 min. The deproteinized supernatant was adjusted to pH 3.5 with 2N formic acid and extracted with 2 volumes of ice cold ethyl acetate. The extracted samples were dried under argon, redissolved in ethyl acetate and applied to Whatman LK5D thin layer chromatography (TLC) plates which were developed using the A-9 solvent system [organic phase of ethyl acetate: 2,2,5-trimethylpentane:acetic acid: water (110:50:20:10)] described by Hamberg and Samuelsson, J. Biol. Chem., 241, 257-263 (1966). Arachidonic acid, 5-HETE, di-HETE and PGD₂ were quantified with a Berthold LB 2832 autoscanner.
(§3) The 5-lipoxygenase and LTA₄ synthetase activities were further studied under the following conditions. An additional centrifugation of the RBL-1 supernatant was run at 100,000 x g for 60 min, to remove the particulate cyclooxygenase activity. Sample incubation was done under conditions similar to those described above, i.e., 2 mM CaCl₂ and 25 uM arachidonic acid-1-¹⁴C, however, with an incubation time of 5 min at […]. Under these conditions, only the 5-lipoxygenase pathway metabolites were detectable. The 5-HETE and di-HETEs were formed at a linear rate, and […] amounts of the arachidonic acid-1-¹⁴C substrate were utilized.

Another assay concerns the target T2, 5-LO (Rattus norvegicus, UniProt P12527).
T2 construct: The activities of these enzymes in extracts of RBL-1 cells were assayed; host or cells: RBL-1 cells, disrupted by nitrogen cavitation; 10,000 x g or 100,000 x g supernatant
T2 sequence (P12527 1-673): T1 sequence (P12527 1-673)
The assay can be described thus: di-HETE production by RBL-1 high speed supernatant. Type of assay: biochemical. To be noted: Table 9A; di-HETE production by RBL-1 high speed supernatant; read-out: 5-LO IC50. The method, then: as §1, §2, §3

Regarding `c1cc(-c2c(-c3ccc4c(c3)OCO4)nc3n2CCS3)ccn1` [Compound 5, 5-(4-pyridyl)-6-(3,4-methylenedioxyphenyl)-2,3-dihydroimidazo[2,1-b]thiazole], the half-maximal inhibitory concentration (IC50) against 5-Lipoxygenase and on 5-LO was 10 µM throughout.

`COc1ccc(-c2nc3n(c2-c2ccc(OC)cc2)CCC3)cc1` [Compound 22] yielded an IC50 against 5-Lipoxygenase of 4 µM.

Consider `Fc1ccc(-c2c(-c3ccccn3)nc3n2CCS3)cc1` [Compound 24, 5-(4-fluorophenyl)-6-(2-pyridinyl)-2,3-dihydroimidazo[2,1-b]thiazole], for which the half-inhibitory concentration (IC50) against 5-Lipoxygenase worked out at 37 µM; at 5-LO, 20 µM.

Consider `c1cc(N2CCCCC2)ccc1-c1nc2n(c1-c1ccc(N3CCCCC3)cc1)CCS2` [Compound 4, 5,6-bis(4-(1-piperidinyl)phenyl)-2,3-dihydroimidazo[2,1-b] thiazole], for which the IC50 at 5-Lipoxygenase turned out to be 1.2 µM; at 5-LO it was 0.6 µM.

For `FC(F)(F)c1ccc(-c2nc3n(c2-c2ccc(C(F)(F)F)cc2)CCS3)cc1` [Compound 15], the half-inhibitory concentration (IC50) on 5-Lipoxygenase and on 5-LO was 10 µM throughout.

Turning to `CN(C)c1ccc(-c2nc3n(c2-c2ccc(F)cc2)CCS3)cc1` [Compound 6, 6-(4-N,N-dimethylaminophenyl)-5-(4-fluorophenyl)-2,3-dihydroimidazo[2,1-b]thiazole], the IC50 against 5-Lipoxygenase was 0.8 µM; at 5-LO, 0.6 µM.

In the case of `[O-][S+]1CCn2c1nc(-c1ccc(F)cc1)c2-c1ccncc1` (centres unmarked) [Compound 28, 6-(4-fluorophenyl)-5-(4-pyridyl)-2,3-dihydroimadazo-[2,1-b]thiazole-1-oxide], the IC50 at 5-Lipoxygenase and on 5-LO was 1000 µM throughout.

Turning to `c1cc(-c2nc3n(c2-c2ccc4c(c2)OCO4)CCS3)ccn1` [Compound 7, 6-(4-pyridyl)-5-(3,4-methylenedioxyphenyl)-2,3-dihydroimidazo[2,1-b]thiazole], the IC50 against 5-Lipoxygenase and on 5-LO was 10 µM in each case.

For the compound `c1cc(-c2nc3n(c2-c2ccncc2)CCS3)ccn1` [Compound 11, 5,6-Bis(4-pyridyl)-2,3-dihydroimidazo(2,1-b)thiazole], the results for the 50% inhibitory concentration (IC50) at 5-Lipoxygenase and on 5-LO were 110 µM and 33 µM, respectively.

`Nc1ccc(-c2nc3n(c2-c2ccc(N)cc2)CCS3)cc1` [Compound 45, 5,6-bis(4-aminophenyl)-2,3-dihydroimidazo[2,1-b]thiazole]: the half-inhibitory concentration (IC50) turned out to be 8 µM at 5-Lipoxygenase and 6 µM at 5-LO.

Take `Fc1ccc(-c2nc3n(c2-c2ccc(F)cc2)CCC3)cc1` [Compound 8, 2,3-Bis(4-fluorophenyl)-6,7-dihydro-5H-pyrrolo[1,2-a]imidazole]: the IC50 against 5-Lipoxygenase turned out to be 12 µM; on 5-LO, 8 µM.

As to `[O-][S+]1CCn2c1nc(-c1ccc(F)cc1)c2-c1ccc(F)cc1` (centres unmarked) [Compound 30], the IC50 at 5-Lipoxygenase amounted to 70 µM; at 5-LO, 60 µM.

As to `CCN(CC)c1ccc(-c2nc3n(c2-c2ccc(N(CC)CC)cc2)CCS3)cc1` [Compound 9, 5,6-bis(4-N,N-diethylaminophenyl)-2,3-dihydroimidazo [2,1-b]thiazole], the IC50 is 0.35 µM against 5-Lipoxygenase and 0.16 µM at 5-LO.

Turning to `Fc1ccc(-c2nc3n(c2-c2ccccn2)CCS3)cc1` [Compound 23, 5-(2-pyridinyl)-6-(4-fluorophenyl)-2,3-dihydroimidazo[2,1-b]thiazole], the results for the half-maximal inhibitory concentration (IC50) against 5-Lipoxygenase and on 5-LO were 90 µM and 42 µM, respectively.

For the compound `c1cc2c(cc1-c1nc3n(c1-c1ccc4c(c1)OCO4)CCS3)OCO2` [Compound 16], the figures for the IC50 against 5-Lipoxygenase and at 5-LO were 3.8 µM and 1.5 µM, respectively.

In the case of `COc1ccc(-c2nc3n(c2-c2ccc(OC)cc2)CCS3(=O)=O)cc1` [Compound 43], the half-maximal inhibitory concentration (IC50) against 5-Lipoxygenase and at 5-LO was 10 µM in each case.

As for `COc1ccc(-c2nc3n(c2-c2ccc(OC)cc2)CCCS3)cc1` [Compound 20], the IC50 at 5-Lipoxygenase and at 5-LO was 5.6 µM each time.

For `COc1ccc(-c2nc3n(c2-c2ccncc2)CCS3)cc1` [Compound 18], the concentration for half-maximal inhibition (IC50) against 5-Lipoxygenase is 5.4 µM; at 5-LO, 1.9 µM.

Take `Fc1ccc(-c2c(-c3ccncc3)nc3n2CCS3)cc1` [Compound 12]: the concentration for half-maximal inhibition (IC50) at 5-Lipoxygenase is 16 µM; on 5-LO it was 17 µM.

In the case of `c1cc(-c2c(-c3ccc(N4CCCC4)cc3)nc3n2CCS3)ccn1` [Compound 25, 5-(4-pyridyl)-6-(4-(pyrrolidin-1-yl)phenyl)-2,3-dihydroimidazo[2,1-b]thiazole], the IC50 against 5-Lipoxygenase and at 5-LO was 0.5 µM throughout.

On to `O=S1(=O)CCn2c1nc(-c1ccc(F)cc1)c2-c1ccc(F)cc1` [Compound 31], for which the IC50 was 33 µM at 5-Lipoxygenase and under 33 µM at 5-LO.

In the case of `CSc1ccc(-c2nc3n(c2-c2ccc(SC)cc2)CCS3)cc1` [Compound 32], the concentration for half-maximal inhibition (IC50) was over 10 µM against 5-Lipoxygenase and over 100 µM at 5-LO. Further, at 5-Lipoxygenase (read-out: % inhibition at 10 μM, 10 μM, 5-HETE production, footnotes of Table 8A), the inhibition at 10 µM was 35 to 40%.

Take `COc1ccc(-c2nc3n(c2-c2ccc(F)cc2)CCS3)cc1` [Compound 14]: the half-inhibitory concentration (IC50) was found to be 2 µM at 5-Lipoxygenase and 0.6 µM on 5-LO.

On to `CCCNc1ccc(-c2nc3n(c2-c2ccncc2)CCS3)cc1` [Compound 2, 6-(4-(1-Propylamino)phenyl)-5-(4-pyridyl)-2,3-dihydroimidazo[2,1-b]thiazole], for which the IC50 on 5-Lipoxygenase amounted to 12 µM; at 5-LO it was 7 µM.

Take `Fc1ccc(-c2nc3n(c2-c2ccc(F)cc2)CCS3)cc1` [Compound 19]: the IC50 against 5-Lipoxygenase came out at 8.6 µM; on 5-LO, 5 µM.

For the compound `c1cc(N2CCCC2)ccc1-c1nc2n(c1-c1ccc(N3CCCC3)cc1)CCS2` [Compound 3, 5,6-bis(4-(1-pyrrolidinyl)phenyl)-2,3-dihydroimidazo[2,1-b] thiazole], the IC50 worked out at 0.23 µM against 5-Lipoxygenase and 0.1 µM at 5-LO.

Regarding `N#Cc1ccc(-c2nc3n(c2-c2ccc(C#N)cc2)CCS3)cc1` [Compound 13, 5,6-bis(4-cyanophenyl)-2,3-dihydroimidazo[2,1-b]thiazole], the half-maximal inhibitory concentration (IC50) stood at 16 µM against 5-Lipoxygenase and 15 µM at 5-LO.

Consider `CCNc1ccc(-c2nc3n(c2-c2ccc(NCC)cc2)CCS3)cc1` [Compound 17], for which the IC50 at 5-Lipoxygenase and on 5-LO was 0.1 µM in each case.

For the compound `CC(=O)Nc1ccc(-c2nc3n(c2-c2ccncc2)CCS3)cc1` [Compound 38, 5-(4-pyridyl)-6-(4-acetamidophenyl)-2,3-dihydroimidazo [(2,1-b)]thiazole], the concentration for half-maximal inhibition (IC50) against 5-Lipoxygenase stood at 69 µM; on 5-LO, 30 µM.

For `O=S1(=O)CCn2c1nc(-c1ccc(F)cc1)c2-c1ccncc1` [Compound 29, 6-(4-fluorophenyl)-5-(4-pyridyl)-2,3-dihydroimidazo[2,1b]thiazole-1,1-dioxide], the IC50 against 5-Lipoxygenase is 100 µM; at 5-LO it was over 100 µM.

`COc1ccc(-c2nc3n(c2-c2ccc(OC)cc2)CCS3)cc1` [Compound 21]: the concentration for half-maximal inhibition (IC50) on 5-Lipoxygenase was 3.9 µM; at 5-LO, 2.8 µM.

As a reminder, the IC50 is the concentration needed to halve the response being measured. For orientation: inhibition means the percentage by which the read-out fell short of the control.
